This is an account of results in patent publication US20120301562A1, “COMPOSITION FOR IMPROVING BLOOD CIRCULATION, CONTAINING EXTRACT OF LINDERA OBTUSILOBA AS ACTIVE INGREDIENT” (priority 2009, published 2012).

The subject of assay [1] is platelet aggregation induced by collagen. The experiment in a line: Inhibition of rat washed platelet aggregation induced by collagen (turbidimetric). Format: cell-based. Conditions: collagen 20 μg/mL, rat washed platelets.
Experimental: (§1) Rats were paralyzed with ethyl ether and blood samples were collected from abdominal aorta with a syringe containing anticoagulant 0.15 M sodium citrate whose volume ratio is 1:9 compared with blood sample volume. Blood samples were centrifuged at 200×g for 10 min to obtain platelet rich plasma (PRP) as supernatant. PRP was centrifuged at 800×g for 15 min, and precipitated platelets were washed two times with a washing buffer (137 mM NaCl, 2.9 mM KCl, 1 mM MgCl2, 5 mM glucose, 12 mM NaHCO3, 0.34 mM Na2HPO4, 1 mM EDTA, 20 mM HEPES, 0.25% BSA, pH 7.4) and suspended in a suspension buffer (suspension buffer. 137 mM NaCl, 2.9 mM KCl, 1 mM MgCl2, 5 mM glucose, 12 mM NaHCO3, 0.34 mM Na2HPO4, 20 mM HEPES, 0.25% BSA, pH 7.4) to prepare washed platelets. Platelet numbers of washed platelets used in measurement of inhibitory effect on platelet aggregation were counted with a cell counter (cell counter. Hema-vet HV950FS, Drew Scientific, USA), and washed platelets were diluted with a buffer solution so as to adjust the platelet count to 3×10^8 platelets/mL. Since platelets are aggregated at low temperatures, the foregoing experiment was carried out at room temperature.
(§2) Inhibitory effect on rat platelet aggregation was measured by turbidimetric method using an aggrerometer (Chrono-Log Co., Ltd., Havertown, Pa., USA). Washed platelets were incubated at 37° C. for 3 min and treated with various concentrations of extracts. After 2 min, platelet aggregation was induced by a platelet aggregation-inducing substance, ADP (22 μM) or collagen (20 μg/mL). Platelet aggregation was measured for 10 min and the inhibition extent of platelet aggregation was calculated. Platelets which were not treated with extracts were used for control, and the inhibition extent of platelet aggregation was calculated using the following equation.
(§3) The inhibition extent of platelet aggregation=[(A−B)/A]×100 [Equation 1] • A: aggregation % of control • B: aggregation % of extract-treated platelets
For assay [2], the system named is platelet aggregation induced by ADP. The experiment in a line: Inhibition of rat washed platelet aggregation induced by ADP (turbidimetric). Format: cell-based. Conditions: ADP 22 μM, rat washed platelets.
Experimental: as §1, §2, §3
In a further assay the test system is thromboembolism. The experiment in a line: Inhibitory effect on thromboembolism induced by collagen and epinephrine injected into the tail vein. Conditions: oral administration 1 h prior to collagen + epinephrine injection, mice. Format: in vivo, mouse. The procedure:
Experimental thrombosis induction in animals was based on Diminno's method. When a platelet aggregation inducer is injected into a tail vein of a mouse, a large amount of thrombus formation is induced in the pulmonary artery to kill the animal, and by observing whether this can be recovered or not, the inhibition extent of thrombus formation is measured. A mixture solution of collagen (Chrono-Log, […]) and epinephrine (Chrono-Log, 2 μg/mouse) was prepared to be contained in 200 μL of physiological saline as a platelet aggregation inducer and injected into the tail vein of mice. Extract suspension or physiological saline was orally administered in proportion to body weight at 1 h prior to injection of the platelet aggregation inducer to investigate antithrombotic effect. The antithrombotic effect was calculated as percentage of the number of experimental animals protected from hind leg paralysis or death induced by the injection of platelet aggregation inducer. Antithrombotic effect of extracts was determined by observing whether recovery from the persistence of paralysis for 15 min or longer after injection, death, or paralysis occurred or not. The survival rate (%) of each group was calculated with the following equation.
The survival rate (%)=(D/C)×100 [Equation 2] • C: the number of animals to which collagen was precisely injected. • D: the number of survived animals among animals to which collagen was precisely injected.

One may read the inhibition as the share of the control response that was lost under treatment. Consider `CC(=O)Oc1ccccc1C(=O)O` [Aspirin], for which the inhibition at 100 µg/mL in assay [1] (final concentration 0.1 mg/mL) is 18.5%; in assay [2] (final concentration 0.1 mg/mL) it was 15.9%. The figures for the inhibition at 1000 µg/mL in assay [1] (final concentration 1 mg/mL) and in assay [2] (final concentration 1 mg/mL) were 51.9% and 52.3%, respectively. Moreover, the inhibition at 10000 µg/mL was 94.4% in assay [1] (final concentration 10 mg/mL) and 93.2% in assay [2] (final concentration 10 mg/mL). In addition, the “1st (survived animals/injected animals, D/C)” value with thromboembolism (1st experiment) is given as 15/19. In the assay with thromboembolism (2nd experiment), the “2nd (survived animals/injected animals, D/C)” value was 9/20. For the same compound, the “3rd (survived animals/injected animals, D/C)” value in the assay with thromboembolism (3rd experiment) is recorded as 9/19. Besides, the “Survival rate (%)” value with thromboembolism ((D/C)×100) worked out at 56%. In addition, the “Sum (D/C)” value with thromboembolism (sum of three experiments) is given as 33/58.
